The text below walks through data of patent US7320978B2, “Oxazole derivatives, preparation and therapeutic use thereof” (Sanofi-Aventis, priority 2004, dated 2008).

Usually melting point stands for the temperature, or range, at which the solid turns liquid.

`CC(=O)C1(c2ccccc2)CCN(C(=O)c2nc(-c3ccc(Cl)cc3)c(-c3ccc(Cl)cc3Cl)o2)CC1` registered a melting point of 175 °C.
